Consider 23 compounds from PubChem BioAssay (NCI).

Common to all, as to experiment: growth of human tumour cells (NCI), 48 h
Assay [1] has as its system RPMI-8226 leukemia.
For assay [2], the system named is U251 CNS.
The subject of assay [3] is EKVX NSCLC.
In assay [4] the test system is SF-268 CNS.
In assay [5] the test system is M14 melanoma.
The test system of assay [6] is SK-MEL-28 melanoma.
The test system of assay [7] is SF-539 CNS.
Assay [8] has as its system OVCAR-8 ovarian.
Assay [9] concerns SK-MEL-5 melanoma.
Assay [10] deals with A498 renal.
For assay [11], the system named is OVCAR-4 ovarian.
Assay [12] has as its system CAKI-1 renal.
Assay [13] deals with OVCAR-5 ovarian.
Assay [14] concerns HS 578T breast.

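How tested: cells in 96-well plates exposed to compound for 48 hours at five concentrations. TGI is the concentration that stops growth completely.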

Regarding `CCCCc1c2c(nc3c1CCc1cc4cc5c(nc4nc1-3)-c1nc3c(c(CCCC)c1CC5)CCC/C3=C\c1ccccc1)/C(=C/c1ccccc1)CCC2`, the TGI in assay [1], in [2], in [3], in [4], in assay [5] and in assay [6] was more than 100 µM throughout. Besides, the TGI in [7] and in assay [8] was more than 100 µM throughout.
Turning to `Cc1occ2c1C(=O)CC1C2[C@@H](O)CC2C(C)(C)CCC[C@]12C` (stereo partly specified), the TGI in [1], in assay [2], in assay [3], in assay [4], in [5] and in [9] was more than 100 µM in each case. The TGI in assay [10], in [6], in [7], in [8] and in assay [11] was more than 100 µM throughout.
In the case of `CC(=O)Nc1ccc(C(=O)N2N=C(C)/C(=C/c3cccc([N+](=O)[O-])c3)C2=O)cc1`, the TGI in assay [12], in [1], in assay [3], in assay [4], in [5] and in assay [9] was more than 100 µM in each case. Further, the TGI in assay [6], in [7], in assay [8], in assay [13] and in assay [11] was more than 100 µM throughout.
In the case of `N#CC1(c2ccccc2)CCN(C2(c3ccccc3)CCCCC2)CC1`, the TGI in assay [12], in assay [1], in assay [2], in [3], in [4] and in [5] was more than 100 µM throughout. Also, the TGI in [9], in [6], in assay [8], in assay [14], in assay [13] and in [11] was more than 100 µM each time.
As for `C=CC(C)(C)c1cc([C@@H]2COc3cc(O)ccc3C2=O)c(O)c(O)c1OC`, the TGI was determined as 27.4 µM in assay [12]; 40.6 µM in [2]; 99.4 µM in assay [3]; 37.4 µM in assay [4]; 46.5 µM in [5]; 41.1 µM in [9]. Moreover, the TGI in assay [6] is 67.2 µM; in assay [7] it was 57.9 µM; in assay [8], 30.9 µM; in assay [14] it was more than 100 µM; in assay [13] it was more than 100 µM; in [11] it was 34.2 µM.
In the case of `O=C(COc1ccc(Cl)cc1)N1CCN(C(=O)COc2ccc(Cl)cc2)c2ccccc21`, the TGI in assay [1], in assay [2], in assay [3], in assay [4], in assay [10] and in assay [6] was more than 100 µM each time. Moreover, the TGI in assay [7], in assay [8] and in assay [13] was more than 100 µM each time.
`Nc1ccc(C(=O)NN2C(=O)C(Cl)C2c2cccc(O)c2)cc1` (stereo unspecified): the TGI in assay [12] is 41.9 µM; in assay [1], 41.7 µM; in [2], 25.2 µM; in [3] it was 46.6 µM; in [4], 17 µM; in assay [5], 35.2 µM. Besides, the TGI came out at 31.7 µM in assay [9]; 58.1 µM in [10]; 31.9 µM in [6]; 31.6 µM in assay [7]; 54.4 µM in [8]; 41.9 µM in assay [13]. In assay [11], this compound gave a TGI of 34 µM.
On to `C#CCSc1nc(N)c2ncn(C3OC(COP(=O)(O)O)C(O)C3O)c2n1` (stereo unspecified), for which the TGI in assay [12], in assay [1], in assay [3], in [4], in [5] and in assay [9] was more than 239 µM throughout. Further, the TGI in assay [10], in assay [6], in assay [7], in assay [8], in [13] and in assay [11] was more than 239 µM each time.
For the compound `CCN1CCCC(Nc2cc(C)nc(/N=C(/N)Nc3ccc(Cl)c(Cl)c3)n2)C1` (stereo unspecified), the TGI in assay [12] came out at 3.1 µM; in assay [1] it was 2.3 µM; in assay [2], 2.6 µM; in [3], 11.4 µM; in assay [4], 5.63 µM; in assay [5], 0.684 µM. Besides, the TGI in assay [9] came out at 5.35 µM; in assay [6] it was 3.34 µM; in [7] it was 3.66 µM; in assay [13] it was 8.11 µM; in assay [11], 4.97 µM.
With `CCCCc1ccc(-n2sc3ncccc3c2=O)cc1`, the TGI in assay [1] was more than 100 µM; in [2], 42.7 µM; in assay [3], 25.2 µM; in assay [4], 47.4 µM; in [5], 26.8 µM; in [9] it was 26.4 µM. The TGI in [6] turned out to be 33.1 µM; in assay [7], 41 µM; in assay [8], 45.7 µM; in [14] it was 43.2 µM; in [13] it was 40.6 µM; in assay [11], 58 µM.
For the compound `C=CCC1(CC)C(=O)NC(=O)NC1=O`, the TGI in assay [1], in assay [2], in assay [3], in assay [4], in assay [5] and in assay [6] was more than 100 µM in each case. The TGI in assay [7] and in [8] was more than 100 µM throughout.
`CC1=NN(C(=O)c2ccc(Cl)cc2)C(=O)/C1=C/c1ccc(Cl)cc1`: the TGI in assay [12], in [1], in [2], in [3], in [4] and in assay [5] was more than 100 µM throughout. Also, the TGI in assay [9], in assay [10], in assay [6], in assay [7], in [8] and in assay [13] was more than 100 µM throughout. The compound also gave a TGI in assay [11] of more than 100 µM.
In the case of `CCOC(=O)c1c(NCc2ccccc2)n(-c2ccccc2)c(=S)n(-c2ccccc2)c1=O`, the TGI in assay [1], in assay [2], in assay [4], in [5], in assay [9] and in assay [6] was more than 100 µM in each case. In addition, the TGI in assay [8] is more than 100 µM; in [14], 94.4 µM; in assay [13], more than 100 µM; in assay [11] it was more than 100 µM.
Regarding `O=C(N/N=C/c1ccc(Cl)cc1)c1cc(I)cc(I)c1O`, the TGI in [12], in assay [1], in [2], in assay [3], in assay [5] and in assay [9] was more than 100 µM in each case. In addition, the TGI in assay [10], in assay [6], in [7], in assay [8], in assay [13] and in [11] was more than 100 µM each time.
Take `Oc1ccc(Cl)cc1C1=N/C(=N\C/N=C2\N=C(c3cc(Cl)ccc3O)CC(c3ccccc3)N2)NC(c2ccccc2)C1` (stereo unspecified): the TGI in assay [12], in assay [1], in assay [2], in [3], in assay [4] and in assay [5] was more than 100 µM in each case. For the same compound, the TGI in assay [9], in [10], in [6], in assay [7], in assay [8] and in assay [13] was more than 100 µM in each case. For the same compound, the TGI in assay [11] was more than 100 µM.
As to `COc1cc(/C=N\NC(=O)C[N+](C)(C)C)cc(OC)c1OC`, the TGI in [12], in [1], in assay [2], in assay [4], in [5] and in [9] was more than 10 µM in each case. Further, the TGI in [6], in assay [7], in assay [8], in assay [14], in [13] and in assay [11] was more than 10 µM each time.
Take `C/C(=C\Cc1cc(O)ccc1O)CCc1c(C)c(O)c(O)c(C=O)c1C`: the TGI in assay [12] was 85.6 µM; in assay [1] it was 80.3 µM; in [2] it was 59.6 µM; in [3], more than 100 µM; in assay [4], 68.5 µM; in assay [5], 77.3 µM. For the same compound, the TGI was 30.2 µM in [9]; more than 100 µM in assay [10]; 48.5 µM in [6]; 42.1 µM in assay [7]; 47 µM in assay [8]; more than 100 µM in assay [11].
Consider `O=C1c2ccccc2-c2nc(-c3ccccc3)cc3c2c1nc1ccccc13`, for which the TGI in [12] was found to be 74.9 µM; in assay [1], 22 µM; in [2], 39.6 µM; in assay [3] it was 88.3 µM; in assay [4], 65.7 µM; in assay [5], 18.3 µM. The TGI in assay [9] was 13.3 µM; in [6], 22.9 µM; in assay [8] it was 66.8 µM; in [14] it was 63.9 µM; in assay [13], 61.4 µM; in assay [11], more than 100 µM.
`CC(=O)c1ccc(N2CCN(C3=CC(=O)c4c(O)ccc(O)c4C3=O)CC2)cc1`: the TGI in [12] was more than 100 µM; in assay [1], more than 100 µM; in [2] it was 50.3 µM; in assay [3] it was more than 100 µM; in assay [4], more than 100 µM; in assay [5], more than 100 µM. Also, the TGI in [10], in assay [6], in [7], in assay [8], in [13] and in assay [11] was more than 100 µM in each case.
As for `CN1Cc2c(nc(-c3ccc(Br)cc3)c[n+]2[O-])N(C)C1`, the TGI in assay [12], in assay [2], in assay [3], in assay [4], in [5] and in assay [9] was more than 100 µM each time. Further, the TGI in assay [10], in assay [6], in assay [7], in assay [8], in assay [13] and in [11] was more than 100 µM throughout.
For `Cc1nn(C)c2nc3ccc(Cl)cc3c(-c3ccccc3)c12`, the TGI in [12], in assay [1], in assay [2], in assay [3], in [4] and in [5] was more than 100 µM throughout. Also, the TGI in assay [10], in assay [6], in assay [7], in assay [8], in assay [13] and in [11] was more than 100 µM throughout.
For the compound `COC1(C)C(=O)N2C1N(C(=O)OCc1ccccc1)CC2(C)C` (stereo unspecified), the TGI in assay [1], in assay [2], in assay [3], in [4], in assay [5] and in [9] was more than 100 µM throughout. The TGI in assay [10], in [6], in assay [7], in assay [8] and in [11] was more than 100 µM each time.
Turning to `CN(C)C(=O)C(F)(F)C(c1ccc(Br)cc1)C1C(=O)N(C)C(=O)N(C)C1=O` (stereo unspecified), the TGI in [12], in assay [1], in assay [2], in assay [3], in [4] and in assay [5] was more than 100 µM in each case. The TGI in assay [9], in [10], in [6], in [13] and in [11] was more than 100 µM in each case.
